test system: C3H10T1/2 cells; experiment: C3H assay: differentiation of C3H10T1/2 cells by mSHH, measurement of alkaline phosphatase; format: cell-based, mouse; conditions: C3H10T1/2 cells stimulated with mSHH for 72 hours; alkaline phosphatase activity; read-out: IC50 Ranges

`CC[C@@H](C)OC(=O)N1CC(S(=O)(=O)N2CCC(c3coc4cccnc34)CC2)C1` [Compound 371, [(2R)-butan-2-yl]3-(4-furo[3,2-b]pyridin-3-ylpiperidin-1-yl)sulfonylaze-tidine-1-carboxylate] and `CC1(C)COCN1C(=O)N1CC(S(=O)(=O)N2CCC(c3coc4cccnc34)CC2)C1` [Compound 372, (4,4-dimethyl-1,3-oxazolidin-3-yl)-[3-(4-furo[3,2-b]pyridin-3-ylpiperidin-1-yl)sulfonylaze-tidin-1-yl]methanone] fall in the same range of IC50: 10 to 100 nM for the first, 10 to 100 nM for the second.

same assay, conditions: Mus musculus, C3H 10T1/2; C3H10T1/2 cells stimulated with mSHH for 72 hours; alkaline phosphatase activity; read-out: IC50 Ranges

Compared with `O=C(NC1(C(F)(F)F)CC1)N1CC(S(=O)(=O)N2CCC(c3ccc(Cl)cc3)CC2)C1` [Compound 341, 3-[4-(4-chlorophenyl)piperidin-1-yl]sulfonyl-N-[1-(trifluoromethyl)cyclopropyl] azetidine-1-carboxamide], `O=C(NC1(C(F)(F)F)CC1)N1CC(S(=O)(=O)N2CCC(c3c[nH]c4cnccc34)CC2)C1` [Compound 355, 3-[4-(1H-pyrrolo[2,3-c]pyridin-3-yl)piperidin-1-yl]sulfonyl-N-[1-(trifluoromethyl)cyclopropyl] azetidine-1-carboxamide] is higher in IC50: 10 to 100 nM for the first, 1000 to 10000 nM for the second. The first is the more potent here.

`Cc1noc(C)c1CC(=O)N1CC(S(=O)(=O)N2CCC(c3ccc(F)cc3)CC2)C1` [Compound 342, 2-(3,5-dimethyl-1,2-oxazol-4-yl)-1-[3-[4-(4-fluorophenyl)piperidin-1-yl]sulfonylazetidin-1-yl]ethanone] and `Cc1noc(C)c1CC(=O)N1CC(S(=O)(=O)N2CCC(c3ccc(C#N)cc3)CC2)C1` [Compound 349, 4-[1-[1-[2-(3,5-dimethyl-1,2-oxazol-4-yl)acetyl]azetidin-3-yl]sulfonylpiper-idin-4-yl]benzonitrile] fall in the same range of IC50: 10 to 100 nM for the first, 10 to 100 nM for the second.

`CC(C)N(CC(=O)N1CC(S(=O)(=O)N2CCC(c3ccc(F)cc3)CC2)C1)C(C)C` [Compound 343, 2-[di(propan-2-yl)amino]-1-[3-[4-(4-fluorophenyl)piperidin-1-yl]sulfonylaze-tidin-l-yl]ethanone] and `CC(C)(C)C(=O)CN1CC(S(=O)(=O)N2CCC(c3ccc(F)cc3)CC2)C1` [Compound 375, 1-[3-[4-(4-fluorophenyl)piperidin-1-yl]sulfonylaze-tidin-1-yl]-3,3-dimethylbutan-2-one] fall in the same range of IC50: 100 to 1000 nM for the first, 100 to 1000 nM for the second.

Compared with `O=C(NC1(C(F)(F)F)CC1)[C@H]1C[C@H](S(=O)(=O)N2CCC(c3coc4cccnc34)CC2)C1` [Compound 345, trans-3-(4-furo[3,2-b]pyridin-3-ylpiperidin-1-yl)sulfonyl-N-[1-(trifluoromethyl)cyclopropyl] cyclobutane-1-carboxamide], `O=C(NC1(C(F)(F)F)CC1)[C@H]1C[C@@H](S(=O)(=O)N2CCC(c3coc4cccnc34)CC2)C1` [Compound 361, cis-3-(4-furo[3,2-b]pyridin-3-ylpiperidin-1-yl)sulfonyl-N-[1-(trifluoromethyl)cyclopropyl] cyclobutane-1-carboxamide] is lower in IC50: 100 to 1000 nM for the first, 10 to 100 nM for the second.

First: CC(C)(C)NC(=O)[C@H]1C[C@H](S(=O)(=O)N2CCC(c3coc4cccnc34)CC2)C1 [Compound 346, trans-N-tert-butyl-3-(4-furo[3,2-b]pyridin-3-ylpiperidin-1-yl) sulfonylcyclobutane-1-carboxamide]
Second: CC(C)(C)NC(=O)[C@H]1C[C@@H](S(=O)(=O)N2CCC(c3coc4cccnc34)CC2)C1 [Compound 362, cis-N-tert-butyl-3-(4-furo[3,2-b]pyridin-3-ylpiperidin-1-yl) sulfonylcyclobutane-1-carboxamide]
The IC50 of the first is higher: 1000 to 10000 nM for the first, 10 to 100 nM for the second.

Compared with `CN(C(=O)N1CC(S(=O)(=O)N2CCC(c3ccc(C#N)cc3)CC2)C1)C1CC1` [Compound 350, 3-[4-(4-cyanophenyl)piperidin-1-yl]sulfonyl-N-cyclopropyl-N-methylazetidine-1-carboxamide], `CC(C)(C)NC(=O)N1CC(S(=O)(=O)N2CCC(c3ccc(C#N)cc3)CC2)C1` [Compound 352, N-tert-butyl-3-[4-(4-cyanophenyl)piperidin-1-yl] sulfonylazetidine-1-carboxamide] is lower in IC50: 1000 to 10000 nM for the first, 100 to 1000 nM for the second.

`N#Cc1ccc(C2CCN(S(=O)(=O)C3CN(C(=O)CC(O)(C(F)(F)F)C(F)(F)F)C3)CC2)cc1` [Compound 351] and `CC(C)(C)C(=O)CN1CC(S(=O)(=O)N2CCC(c3ccc(C#N)cc3)CC2)C1` [Compound 378, 4-[1-[1-(3,3-dimethyl-2-oxobutyl)azetidin-3-yl]sulfonylpiperidin-4-yl]benzonitrile] fall in the same range of IC50: 100 to 1000 nM for the first, 100 to 1000 nM for the second.

`O=S(=O)(C1CN(Cc2ccccc2OC(F)F)C1)N1CCC(c2ccccc2)CC1` [Compound 353, 1-[1-[[2-(difluoromethoxy)phenyl]methyl]azetidin-3-yl]sulfonyl-4-phenylpiperidine] and `Cc1ccc(F)cc1NC(=O)N1CC(S(=O)(=O)N2CCC(c3ccc(F)cc3)CC2)C1` [Compound 367, N-(5-fluoro-2-methylphenyl)-3-[4-(4-fluorophenyl)piperidin-1-yl]sulfonylaze-tidine-1-carboxamide] fall in the same range of IC50: 1000 to 10000 nM for the first, 1000 to 10000 nM for the second.

Compared with `Cc1ccc(C2CCN(S(=O)(=O)C3CN(C(=O)OC(C)(C)C)C3)CC2)c(C)c1` [Compound 354, tert-butyl 3-[4-(2,4-dimethylphenyl)piperidin-1-yl]sulfonylaze-tidine-1-carboxylate], `CC(C)(C)NC(=O)N1CC(S(=O)(=O)N2CCC(c3coc4cccnc34)CC2)C1` [Compound 370, N-tert-butyl-3-(4-furo[3,2-b]pyridin-3-ylpiperidin-1-yl)sulfonylaze-tidine-1-carboxamide] is lower in IC50: 1000 to 10000 nM for the first, 10 to 100 nM for the second.

Compared with `O=S(=O)(C1CN(c2ccccn2)C1)N1CCC(c2c[nH]c3cccnc23)CC1` [Compound 356, 3-[1-(1-pyridin-2-ylazetidin-3-yl)sulfonylpiper-idin-4-yl]-1H-pyrrolo[3,2-b]pyridine], `Cc1ccccc1NC(=O)N1CC(S(=O)(=O)N2CCC(c3c[nH]c4ncccc34)CC2)C1` [Compound 364, N-(2-methylphenyl)-3-[4-(1H-pyrrolo[2,3-b]pyridin-3-yl)piperidin-1-yl]sulfonylaze-tidine-1-carboxamide] is lower in IC50: 1000 to 10000 nM for the first, 10 to 100 nM for the second.

`CC(C)(C)OC(=O)N[C@H]1C[C@H](S(=O)(=O)N2CCC(c3c[nH]c4ncccc34)CC2)C1` [Compound 357, trans-tert-butyl-N-[3-[[4-(1H-pyrrolo[2,3-b]pyridin-3-yl)-1-piperidyl]sulfonyl]cyclobutyl]carbamate] and `CC(C)(C)OC(=O)N[C@H]1C[C@@H](S(=O)(=O)N2CCC(c3c[nH]c4ncccc34)CC2)C1` [Compound 358, cis-tert-butyl-N-[3-[[4-(1H-pyrrolo[2,3-b]pyridin-3-yl)-1-piperidyl]sulfonyl]cyclobutyl]carbamate] fall in the same range of IC50: 10 to 100 nM for the first, 10 to 100 nM for the second.

`O=C(Nc1ccc(Cl)cc1Cl)N1CC(S(=O)(=O)N2CCC(c3coc4cccnc34)CC2)C1` [Compound 359, N-(2,4-dichlorophenyl)-3-(4-furo[3,2-b]pyridin-3-ylpiperidin-1-yl)sulfonylaze-tidine-1-carboxamide] and `Cc1c(F)cccc1NC(=O)N1CC(S(=O)(=O)N2CCC(c3coc4cccnc34)CC2)C1` [Compound 360, N-(3-fluoro-2-methylphenyl)-3-(4-furo[3,2-b]pyridin-3-ylpiperidin-1-yl)sulfonylaze-tidine-1-carboxamide] fall in the same range of IC50: 10 to 100 nM for the first, 10 to 100 nM for the second.

First: Cc1c(F)cccc1NC(=O)N1CC(S(=O)(=O)N2CCC(c3c[nH]c4ncccc34)CC2)C1 [Compound 363, N-(3-fluoro-2-methylphenyl)-3-[4-(1H-pyrrolo[2,3-b]pyridin-3-yl)piperidin-1-yl]sulfonylaze-tidine-1-carboxamide]
Second: Cc1ccc2c(C3CCN(S(=O)(=O)C4CN(C(=O)Nc5cc(F)ccc5C)C4)CC3)c[nH]c2n1 [Compound 368, N-(5-fluoro-2-methylphenyl)-3-[4-(6-methyl-1H-pyrrolo[2,3-b]pyridin-3-yl)piperidin-1-yl]sulfonylaze-tidine-1-carboxamide]
The IC50 of the first is lower: 10 to 100 nM for the first, 1000 to 10000 nM for the second. The first is the more potent here.

Compared with `Cc1ccc(F)cc1NC(=O)N1CC(S(=O)(=O)N2CCC(c3coc4cccnc34)CC2)C1` [Compound 365, N-(5-fluoro-2-methylphenyl)-3-(4-furo[3,2-b]pyridin-3-ylpiperidin-1-yl)sulfonylaze-tidine-1-carboxamide], `Cc1ccccc1NC(=O)N1CC(S(=O)(=O)N2CCC(c3coc4cccnc34)CC2)C1` [Compound 369, 3-(4-furo[3,2-b]pyridin-3-ylpiperidin-1-yl)sulfonyl-N-(2-methylphenyl) azetidine-1-carboxamide] is higher in IC50: 10 to 100 nM for the first, 100 to 1000 nM for the second. The first is the more potent here.

Compared with `Cc1ccc(F)cc1NC(=O)N1CC(S(=O)(=O)N2CCC(c3ccc(C#N)cc3)CC2)C1` [Compound 366, 3-[4-(4-cyanophenyl)piperidin-1-yl]sulfonyl-N-(5-fluoro-2-methylphenyl) azetidine-1-carboxamide], `CC(C)[C@@H](CO)NC(=O)N1CC(S(=O)(=O)N2CCC(c3coc4cccnc34)CC2)C1` [Compound 373, 3-(4-furo[3,2-b]pyridin-3-ylpiperidin-1-yl)sulfonyl-N-[(2S)-1-hydroxy-3-methylbutan-2-yl]azetidine-1-carboxamide] is lower in IC50: 100 to 1000 nM for the first, 10 to 100 nM for the second. The second is the more potent here.

First: C[C@@H]1CN(C(=O)N2CC(S(=O)(=O)N3CCC(c4coc5cccnc45)CC3)C2)C[C@H](C)O1 [Compound 374, [(2R,6S)-2,6-dimethylmorpholin-4-yl]-[3-(4-furo[3,2-b]pyridin-3-ylpiperidin-1-yl)sulfonylazetidin-1-yl]methanone]
Second: CC(C)(C)C(=O)CN1CC(S(=O)(=O)N2CCC(c3coc4cccnc34)CC2)C1 [Compound 376, 1-[3-(4-furo[3,2-b]pyridin-3-ylpiperidin-1-yl)sulfonylazetidin-1-yl]-3,3-dimethylbutan-2-one]
The IC50 of the first is lower: less than 10 nM for the first, 10 to 100 nM for the second. The first is the more potent here.

For `O=C(CC1CCOCC1)N1CC(S(=O)(=O)N2CCC(c3coc4cccnc34)CC2)C1` [Compound 377, 1-[3-[(4-furo[3,2-b]pyridin-3-yl-1-piperidyl)sulfonyl]azetidin-1-yl]-2-tetrahydropyran-4-yl-ethanone], the IC50 was 10 to 100 nM.
